From patent US6864286B2, “Inhibitors of the EGF-receptor tyrosine kinase and methods for their use” (Parker Hughes Institute, priority 1998, dated 2005) come the findings set out here.

What is called IC50 is the concentration needed to halve the response being measured. Usually inhibition stands for the drop in the measured response relative to a control, in per cent. Lower therefore signals little suppression.

Experiment [1] has as its system MDA-MB-231 human breast cancer cells. Nature of the experiment: Transfilter cell invasion assay (Matrigel-coated Boyden chambers). Type of experiment: cell-based. Here is the method: The chamber filters were coated with 50 μg/ml of Matrigel matrix, incubated overnight at room temperature under a laminar flow hood and stored at 4° C.
On the day of the experiment, the coated inserts were rehydrated with 0.5 ml serum-free DMEM containing 0.1% bovine serum albumin for 1-2 hours. To study the effects of LFM and LFM-A12 on invasiveness of MDA-MB-231 cells, exponentially growing cells were incubated with each compound at various concentrations ranging from 12.5 RM to 100 μM in 0.1% DMSO overnight. The cells were trypsinized, washed twice with serum-free DMEM containing BSA, counted and resuspended at 1×10^5 cells/ml.
A 0.5 ml cell suspension containing 5×10^4 cells in a serum-free DMEM containing LFM, LFM-A12, or vehicle was added to the Matrigel-coated and rehydrated filter inserts. Next, 750 μl of NIH fibroblast conditioned medium was placed as a chemoattractant in 24-well plates and the inserts were placed in wells and incubated at 37° C. for 48 hours. […] The invasive cells that migrated to the lower side of the filter were fixed, stained with Hema-3 solutions and counted under microscope. No cells were detected at the bottom of the Boyden chambers. Therefore, the number of cells on the lower side of the filters accounted for all cells that had migrated through the filter. Five (5) to ten (10) random fields per filter were counted to determine the mean (±SE) values for the invasive fraction. The invasive fractions of cells treated with LFM or LFM-A12 were compared to those of vehicle (0.1% DMSO in PBS) treated control cells and the percent inhibition of invasiveness was determined using the following formula: % Inhibition=100×(1-Invasive Fraction of Drug-Treated Cells/Invasive Fraction of Control Cells).

For experiment [2], the system named is MDA-MB-231 cells. As to the kind of experiment: MTT cytotoxicity assay, MDA-MB-231. In kind it is cell-based. The settings on record: Homo sapiens, 36 hours, read-out: Cancer Cell Cytotoxicity IC50 MDA-MB-231. Here is the method:
(§1) In order to determine the cytotoxic activity of LFM and its analogs against breast cancer cells, cells in alpha-MEM supplemented with 10% (v/v) fetal calf serum were treated with various concentrations of the compounds for 24 hours at 37° C., washed twice in alpha-MEM, and then used in either MTT assays or in vitro invasion assays, as described hereinafter.
The cytotoxicity of various compounds against human breast cancer cell lines was analyzed using the MTT (3-[4,5-dimethylthiazol-2-yl]-2,5-diphenyl tetrazolium bromide) assay (Boehringer Mannheim Corp., Indianapolis, Ind.). Uckun F. M., et al. Clin. Cancer Res. 1998, 4, 901-912. Exponentially growing breast cancer cells were seeded into a 96-well plate at a density of 2.5×10^4 cells/well and incubated for 36 hours at 37° C. prior to drug exposure. On the day of treatment, culture medium was carefully aspirated from the wells and replaced with fresh medium containing the LFM analogs at concentrations ranging from 2 to 250 μM. Triplicate wells were used for each treatment. The cells were incubated with the various compounds for 36 hours at 37° C. in a humidified 5% CO2 atmosphere. To each well, 10 μl of MTT (0.5 mg/ml final concentration) was added and the plates were incubated at 37° C. for 4 hours to allow MTT to form formazan crystals by reacting with metabolically active cells. The formazan crystals were solubilized overnight at 37° C. in a solution containing 10% SDS in 0.01 M HCl. The absorbence of each well was measured in a microplate reader (Labsystems) at 540 nm and a reference wavelength of 690 nm.
To translate the absorbance A540 values into the number of live cells in each well, the A540 values were compared to those on standard A540-versus-cell number curves generated for each cell line. The percent survival was calculated using the formula: % survival=Live cell number[test]/Live cell number [control]×100. The IC50 values were calculated by non-linear regression analysis using an Graphpad Prism software version 2.0 (Graphpad Software, Inc., San Diego, Calif.).
For orientation: Tetrazolium dyes change colour on reduction, which living cells bring about.

A further experiment concerns the target T1, JAK1 (Homo sapiens, UniProt P23458).
T1 construct: made in house; host or cells: Sf21 insect cells (baculovirus)
As to the kind of experiment: Cell-free JAK1 immune complex kinase assay. In kind it is biochemical. The conditions noted are these: for effect on enzymatic activity of JAK1: at concentrations as high as 350 μM. The method, then:
(§2) Immunoprecipitations, immune-complex protein kinase assays, and immunoblotting using the ECL chemiluminescence detection system (Amersham Life Sciences) were conducted as described previously (Vassilev, A., et al. J. Biol. Chem. 1998, in press; Goodman, P. A., et al. J. Biol. Chem. 1998, 273, 17742; Mahajan, S., et al. Mol. Cell. Biol. 1995, 15, 5304; Uckun, F. M., et al. Science 1996, 22, 1096).

The target of another experiment is T2, BTK (Homo sapiens, UniProt Q06187).
T2 construct: made in house; host or cells: Sf21 insect cells (baculovirus)
As to the kind of experiment: Cell-free BTK immune complex kinase assay. Type of experiment: biochemical. The conditions noted are these: for effect on enzymatic activity of BTK: at concentrations as high as 350 μM. Here is the method: as §2

In the next experiment the target is T3, HCK (Homo sapiens, UniProt P08631).
T3 construct: expressed in transfected cells; host or cells: COS-7 simian kidney cells
As to the kind of experiment: Cell-free HCK immune complex kinase assay. In kind it is biochemical. The conditions noted are these: for effect on enzymatic activity of HCK: at concentrations as high as 350 μM, HCK from transfected COS7 cells. The method, then: as §2
For HCK kinase assays, we used HCK-transfected COS-7 cells. The cloning and expression of HCK in COS-7 cells has been described previously (Saouaf, S. J., et al. J. Biol. Chem. 1995, 270, 27072). The pSV7c-HCK plasmid was transfected into 2×10^6 COS-7 cells using Lipofectamine (GIBCO/BRL), and the cells were harvested 48 hours later. The cells were lysed in NP-40 buffer and HCK was immunoprecipitated from the whole cell lysates with an anti-HCK antibody.

In experiment [3] the test system is MDA-MB-231 cells. As to the kind of experiment: In vitro clonogenic assay, MDA-MB-231. In kind it is cell-based, human. The conditions noted are these: 24 hour treatment; for inhibition at 0.1 µM / inhibition at 10 µM / inhibition at 100 µM: Homo sapiens. Here is the method: as §1
After treatment with LFM analogs, cells were resuspended in clonogenic medium consisting of alpha-MEM supplemented with 0.9% methylcellulose, 30% fetal bovine serum, and 50 μM 2-mercaptoethanol. Cells were plated in duplicate Petri dishes at 100,000 cells/mL/dish and cultured in a humidified 5% CO2 incubator for 7 days. Cancer cell colonies were enumerated on a grid using an inverted phase microscope of high optical resolution (Uckun F. M., et al. Clin. Cancer Res. 1998, 4, 901-912; and Kuo). Results were expressed as % inhibition of clonogenic cells at a particular concentration of the test agent using the formula: % Inhibition=(1-Mean # of colonies [Test]/Mean # of colonies [Control])×100. Furthermore, the dose survival curves were constructed using the percent control survival (=Mean # of colonies[Test]/Mean # of colonies [Control]×100) results for each drug concentration as the data points and the IC50 values were calculated. The IC50 values were determined using an Prism Version II Inplot program (Graphpad Software, Inc., San Diego, Calif.).

Where [4] appears, read: MDA-MB-231, migration for 48 hours, mean of two experiments, read-out: IC50 for inhibition of invasion through Matrigel matrix.

Entries after “also recorded” stand apart in the source; their conditions may differ. Like-named read-outs stand apart in the source and are kept apart here.

T2 sequence (Q06187 whole entry, species assumed): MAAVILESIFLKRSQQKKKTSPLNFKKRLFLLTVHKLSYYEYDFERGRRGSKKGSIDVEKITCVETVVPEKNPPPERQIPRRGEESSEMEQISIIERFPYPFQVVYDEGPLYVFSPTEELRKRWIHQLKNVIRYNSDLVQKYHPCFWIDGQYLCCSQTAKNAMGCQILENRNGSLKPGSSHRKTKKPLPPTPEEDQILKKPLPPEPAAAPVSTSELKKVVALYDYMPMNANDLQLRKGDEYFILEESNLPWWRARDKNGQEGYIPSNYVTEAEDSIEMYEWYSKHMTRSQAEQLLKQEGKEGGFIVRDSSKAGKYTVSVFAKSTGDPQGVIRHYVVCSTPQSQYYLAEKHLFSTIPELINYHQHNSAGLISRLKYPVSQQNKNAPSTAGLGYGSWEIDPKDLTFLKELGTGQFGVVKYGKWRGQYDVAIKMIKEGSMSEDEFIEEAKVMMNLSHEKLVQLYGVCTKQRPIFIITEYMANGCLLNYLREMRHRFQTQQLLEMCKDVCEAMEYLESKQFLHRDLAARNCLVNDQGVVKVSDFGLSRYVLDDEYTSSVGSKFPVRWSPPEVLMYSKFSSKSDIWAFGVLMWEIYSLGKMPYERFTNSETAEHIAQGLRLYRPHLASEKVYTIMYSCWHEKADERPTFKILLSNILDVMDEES
T1 sequence (P23458 whole entry, species assumed): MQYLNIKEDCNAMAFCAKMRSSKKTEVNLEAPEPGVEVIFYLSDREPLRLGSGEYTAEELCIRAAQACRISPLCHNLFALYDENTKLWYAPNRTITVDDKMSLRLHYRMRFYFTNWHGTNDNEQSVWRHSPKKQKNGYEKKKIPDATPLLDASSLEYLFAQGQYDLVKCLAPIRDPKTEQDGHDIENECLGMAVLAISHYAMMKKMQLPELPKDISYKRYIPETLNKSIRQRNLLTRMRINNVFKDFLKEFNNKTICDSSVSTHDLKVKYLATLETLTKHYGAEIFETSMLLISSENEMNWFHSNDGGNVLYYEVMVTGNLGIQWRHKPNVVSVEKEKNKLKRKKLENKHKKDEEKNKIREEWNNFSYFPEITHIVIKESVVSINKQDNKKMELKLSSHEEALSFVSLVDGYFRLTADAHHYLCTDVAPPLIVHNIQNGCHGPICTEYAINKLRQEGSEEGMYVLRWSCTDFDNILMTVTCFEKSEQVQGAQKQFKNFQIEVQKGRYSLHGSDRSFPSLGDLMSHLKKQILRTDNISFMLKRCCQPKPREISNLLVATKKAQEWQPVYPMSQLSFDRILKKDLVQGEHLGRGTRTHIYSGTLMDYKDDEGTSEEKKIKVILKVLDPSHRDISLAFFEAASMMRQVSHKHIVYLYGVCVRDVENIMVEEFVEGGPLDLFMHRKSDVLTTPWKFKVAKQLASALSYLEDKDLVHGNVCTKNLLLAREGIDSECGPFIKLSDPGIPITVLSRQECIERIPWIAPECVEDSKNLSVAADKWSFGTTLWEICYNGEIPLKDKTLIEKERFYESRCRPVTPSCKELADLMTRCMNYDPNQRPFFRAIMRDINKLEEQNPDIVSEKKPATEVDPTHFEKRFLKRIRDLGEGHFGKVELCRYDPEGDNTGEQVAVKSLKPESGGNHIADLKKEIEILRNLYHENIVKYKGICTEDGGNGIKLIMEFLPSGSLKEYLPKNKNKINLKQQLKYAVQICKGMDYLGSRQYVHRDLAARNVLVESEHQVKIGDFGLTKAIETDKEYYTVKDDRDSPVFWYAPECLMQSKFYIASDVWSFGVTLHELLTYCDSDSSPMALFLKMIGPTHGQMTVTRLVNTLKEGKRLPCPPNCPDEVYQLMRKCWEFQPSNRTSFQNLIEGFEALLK
T3 sequence (P08631 whole entry, species assumed): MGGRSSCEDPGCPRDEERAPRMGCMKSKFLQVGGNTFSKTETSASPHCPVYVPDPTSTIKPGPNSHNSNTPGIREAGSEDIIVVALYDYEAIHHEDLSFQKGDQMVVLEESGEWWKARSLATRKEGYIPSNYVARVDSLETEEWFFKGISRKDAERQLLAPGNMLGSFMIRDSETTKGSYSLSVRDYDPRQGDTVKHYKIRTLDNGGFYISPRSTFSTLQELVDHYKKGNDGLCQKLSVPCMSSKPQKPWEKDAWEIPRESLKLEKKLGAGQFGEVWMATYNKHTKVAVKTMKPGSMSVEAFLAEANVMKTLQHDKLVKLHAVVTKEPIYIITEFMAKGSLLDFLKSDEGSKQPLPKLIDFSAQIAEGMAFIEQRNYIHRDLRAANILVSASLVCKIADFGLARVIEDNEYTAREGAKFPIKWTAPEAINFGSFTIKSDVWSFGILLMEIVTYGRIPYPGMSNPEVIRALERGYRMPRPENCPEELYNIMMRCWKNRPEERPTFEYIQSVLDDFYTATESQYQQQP

On to `CC(O)=C(C#N)C(=O)Nc1ccc(C(F)(F)F)cc1` [LFM, α-Cyano-β-hydroxy-β-methyl-N-[4-(trifluoromethyl)phenyl]-propenamide, reference compound], for which the concentration for half-maximal inhibition (IC50) was found to be 97 µM in experiment [1] (setting [4]); 97 µM in experiment [1] (MDA-MB-231, read-out: IC50 for inhibition of invasion through Matrigel matrix); 199 µM with MDA-MB-231 cells [2]. Also, the “effect on enzymatic activity of JAK1” value on JAK1 is “did not affect the enzymatic activity”. For the same compound, the “effect on enzymatic activity of BTK” value at BTK is given as “did not affect the enzymatic activity”. Moreover, the “effect on enzymatic activity of HCK” value at HCK was “did not affect the enzymatic activity; also recorded: lack of inhibition”. In addition, testing at 0.1 µM with MDA-MB-231 cells [3] (MDA-MB-231, 0.1 μM) gave an inhibition of 16.2%. For the same compound, the inhibition at 10 µM with MDA-MB-231 cells [3] (MDA-MB-231, 10 μM) was found to be 44.2%. The same compound came in with an inhibition at 100 µM with MDA-MB-231 cells [3] (MDA-MB-231, 100 μM) of 74.2%. For the same compound, the “Tumor Cell Colonies/10^5 Cells” value worked out at 964 in the experiment with MDA-MB-231 cells [3] (MDA-MB-231, 0.1 μM); 642 in the experiment on MDA-MB-231 cells [3] (MDA-MB-231, 10 μM); 297 in the experiment with MDA-MB-231 cells [3] (MDA-MB-231, 100 μM).

Consider `C/C(O)=C(\C#N)C(=O)Nc1ccc(OC(F)(F)F)cc1` [LFM-A12, α-Cyano-β-hydroxy-β-methyl-N-[4-(trifluoromethoxy)phenyl]-propenamide], for which the IC50 was 28.4 µM in experiment [1] (setting [4]); 53.4 µM with MDA-MB-231 cells [2]; over 175 µM on JAK1 (JAK1, cell-free, read-out: Inhibition IC50); over 175 µM on BTK (BTK, cell-free, read-out: Inhibition IC50); over 350 µM at HCK (HCK, cell-free, read-out: Inhibition IC50). In addition, at JAK1, the “effect on enzymatic activity of JAK1” value is given as “did not affect the enzymatic activity”. In addition, on BTK, the “effect on enzymatic activity of BTK” value is given as “did not affect the enzymatic activity”. Moreover, the “effect on enzymatic activity of HCK” value on HCK is reported as “did not affect the enzymatic activity; also recorded: lack of inhibition”. Besides, 0.1 µM produced 42% inhibition with MDA-MB-231 cells [3] (MDA-MB-231, 0.1 μM). The inhibition at 10 µM in the experiment with MDA-MB-231 cells [3] (MDA-MB-231, 10 μM) is 55.2%. The compound further registered an inhibition at 100 µM with MDA-MB-231 cells [3] (MDA-MB-231, 100 μM) of over 99%. For the same compound, the “Tumor Cell Colonies/10^5 Cells” value with MDA-MB-231 cells [3] (MDA-MB-231, 0.1 μM) was determined as 667; in the experiment on MDA-MB-231 cells [3] (MDA-MB-231, 10 μM), 515; with MDA-MB-231 cells [3] (MDA-MB-231, 100 μM) it was 0. For the same compound, the “% Inhibition of clonogenic cells” value with MDA-MB-231 cells [3] (MDA-MB-231, 100 μM, 100 µM) is on record as over 99%.
